Laboratory results: US9980943B2, “Methods of treating muscular dystrophy” (BOARD OF REGENTS OF THE NEVADA SYSTEM OF HIGHER EDUCATION, …, priority 2013, dated 2018)

How the values were obtained:
Assay type in all cases: cell-based, mouse
[1] = test system: α7 integrin (LacZ reporter in α7+/LacZ myotubes); experiment: Myotube α7 integrin FDG assay (Burkin assay in myotubes, 96-well); conditions: for dose-response curve in myotubes: hits of Prestwick/Microsource screens
[2] = test system: α7 integrin (LacZ reporter in α7βgal+/− myoblasts); experiment: Myoblast α7+/LacZ integrin FDG assay (Burkin assay in myoblasts, 96-well); conditions: for Burkin Assay in Myoblasts, signal relative to DMSO / Burkin Assay in Myoblasts, value relative to DMSO: α7+/LacZ myoblasts, 96-well
[3] = test system: β-galactosidase in CMV-LacZ C2C12 myotubes; experiment: CMV-LacZ secondary screen in C2C12 myotubes (β-Gal stabilizing assay); conditions: C2C12 CMV-LacZ myotubes, fold relative to DMSO
Text: In order to determine compounds that acted to stabilize β-gal in myogenic cells, a CMV-LacZ C2C12 cell line was used in a secondary screen. The EGFP gene from the pEGFP (Clontech) vector was replaced by LACZ PCR product with digests of the vector/PCR product performed using EcoRI (NEB) and NotI (NEB) and ligated using T4 DNA Ligase (NEB) following standard procedures to produce the CMV-LACZ vector. The LACZ gene was generated by PCR from the pBK-RSV (Stratagene) vector using primers LACZ EcoRI F- and LACZ NotI R-. The CMV-LACZ vector was then digested with AfIII (NEB) to linearize the construct, which was then transfected in C2C12 myoblasts using Lipofectamine 2000 (Invitrogen) following the manufacturer's instructions. […] Clonal lines were selected and screened for βgal levels using the myoblast FDG assay.
The assays were used the original 96-well format and new dose-response curves for myoblasts (N=3-6 replicates for each data point), myotubes (N=3-6 replicates for data point), and CMV-LacZ secondary assay (N=2 replicates for each data point) using concentrations of 0.5 μM, 1 μM, 5 μM, 10 μM, 20 μM, and 40 μM (Tables 9-16).

[4] = Mus musculus, Myotube, read-out: Burkin Assay in Myotubes, α7 integrin LacZ reporter signal relative to DMSO
[5] = Mus musculus, Myoblast, 48 h, read-out: Burkin Assay in Myoblasts, signal relative to DMSO

## c1ccc(-c2ccccn2)nc1 [2,2-Dipyridyl, reference compound]
[1]
  dose-response curve in myotubes: positive dose-response curves

## CC(C)CCC[C@@H](C)[C@H]1CC[C@H]2[C@@H]3CC(=O)[C@H]4C[C@@H](O)CC[C@]4(C)[C@H]3CC[C@]12C [5alpha-cholestan-3β-ol-6-one, reference compound]
[1]
  dose-response curve in myotubes: positive dose-response curve

## Cc1cc(C2CCCCC2)n(O)c(=O)c1 [Ciclopirox ethanolamine, reference compound]
[1]
  dose-response curve in myotubes: positive dose-response curves

## CCc1nnc(NC(=O)c2ccc(S(=O)(=O)NCC(C)C)cc2)s1 [MLS000027478-01]
[1]; 0.5 uM
  Burkin Assay in Myotubes, α7 integrin LacZ reporter signal relative to DMSO: 1.0222
[1]; 1 uM
  Burkin Assay in Myotubes, α7 integrin LacZ reporter signal relative to DMSO: 0.9043
[1]; 5 uM
  Burkin Assay in Myotubes, α7 integrin LacZ reporter signal relative to DMSO: 0.984
[1]; 10 uM
  Burkin Assay in Myotubes, α7 integrin LacZ reporter signal relative to DMSO: 0.9583
[1]; 20 uM
  Burkin Assay in Myotubes, α7 integrin LacZ reporter signal relative to DMSO: 0.9854
[1]; 40 uM
  Burkin Assay in Myotubes, α7 integrin LacZ reporter signal relative to DMSO: 0.9115
[2]; 0.5 uM
  Burkin Assay in Myoblasts, signal relative to DMSO: 0.9552
[2]; 1 uM
  Burkin Assay in Myoblasts, signal relative to DMSO: 0.9044
[2]; 5 uM
  Burkin Assay in Myoblasts, signal relative to DMSO: 0.9721
[2]; 10 uM
  Burkin Assay in Myoblasts, signal relative to DMSO: 0.9209
[2]; 20 uM
  Burkin Assay in Myoblasts, signal relative to DMSO: 0.9145
[2]; 40 uM
  Burkin Assay in Myoblasts, signal relative to DMSO: 0.816
[3]; 5 uM
  CMV-LACZ in Myotubes, signal relative to DMSO: 0.9489
[3]; 10 uM
  CMV-LACZ in Myotubes, signal relative to DMSO: 0.924
[3]; 20 uM
  CMV-LACZ in Myotubes, signal relative to DMSO: 0.9443
[3]; 40 uM
  CMV-LACZ in Myotubes, signal relative to DMSO: 0.979

## CCOCCCN1C(=O)CN(C2CCCCCC2)C(=O)C1c1ccc(OC)cc1 (stereo not drawn) [MLS000046123-01]
[1]; 0.5 uM
  Burkin Assay in Myotubes (signal relative to DMSO): 0.9802
[1]; 1 uM
  Burkin Assay in Myotubes (signal relative to DMSO): 0.9389
[1]; 5 uM
  Burkin Assay in Myotubes (signal relative to DMSO): 0.8905
[1]; 10 uM
  Burkin Assay in Myotubes (signal relative to DMSO): 0.865
[1]; 20 uM
  Burkin Assay in Myotubes (signal relative to DMSO): 0.9268
[1]; 40 uM
  Burkin Assay in Myotubes (signal relative to DMSO): 0.9203
[2]; 0.5 uM
  Burkin Assay in Myoblasts, value relative to DMSO: 1.049
[2]; 1 uM
  Burkin Assay in Myoblasts, value relative to DMSO: 0.9808
[2]; 5 uM
  Burkin Assay in Myoblasts, value relative to DMSO: 0.9565
[2]; 10 uM
  Burkin Assay in Myoblasts, value relative to DMSO: 1.007
[2]; 20 uM
  Burkin Assay in Myoblasts, value relative to DMSO: 1.002
[2]; 40 uM
  Burkin Assay in Myoblasts, value relative to DMSO: 0.9894
[3]; 5 uM
  CMV-LACZ in Myotubes, signal relative to DMSO: 0.9124
[3]; 10 uM
  CMV-LACZ in Myotubes, signal relative to DMSO: 1.084
[3]; 20 uM
  CMV-LACZ in Myotubes, signal relative to DMSO: 1.145
[3]; 40 uM
  CMV-LACZ in Myotubes, signal relative to DMSO: 1.076

## Cc1nc2c([nH]1)OC(N)=C(C#N)C21CCN(Cc2ccccc2)CC1 [MLS000047918-01]
[1]; [4]
  fold induction at 0.5 µM: 1.4
  fold induction at 1 µM: 0.913
  fold induction at 5 µM: 0.899
  fold induction at 10 µM: 0.872
  fold induction at 20 µM: 0.967
  fold induction at 40 µM: 0.945
[2]; [5]
  fold induction at 0.5 µM: 0.873
  fold induction at 1 µM: 0.912
  fold induction at 5 µM: 0.948
  fold induction at 10 µM: 1
  fold induction at 20 µM: 0.803
  fold induction at 40 µM: 0.78
[3]; Mus musculus, C2C12, read-out: CMV-LACZ in Myotubes, signal relative to DMSO, 5 uM
  fold induction at 5 µM: 0.937
[3]; Mus musculus, C2C12, read-out: CMV-LACZ in Myotubes, signal relative to DMSO, 10 uM
  fold induction at 10 µM: 0.8
[3]; Mus musculus, C2C12, read-out: CMV-LACZ in Myotubes, signal relative to DMSO, 20 uM
  fold induction at 20 µM: 1.04
[3]; Mus musculus, C2C12, read-out: CMV-LACZ in Myotubes, signal relative to DMSO, 40 uM
  fold induction at 40 µM: 1.05
